# Reference: patent US11472791B2 (Incyte Corporation, priority 2019, dated 2022)
# Target: CDK2/Cyclin E1 (Homo sapiens (Human), UniProt P24941)
# Assay: CDK2/Cyclin E1 HTRF enzyme activity assay
# Type: biochemical
# Details: 1 mM ATP
# Experimental: Assays are conducted in white 384-well polystyrene plates in a final reaction volume of 8 μL. […] HTRF signals are read after 1 hour at room temperature on a PHERAstar FS plate reader (BMG Labtech). Data is analyzed with IDBS XLFit and GraphPad Prism 5.0 software using a three or four parameter dose response curve to determine IC50 for each compound.
row,IC50 [nM],Compound
1,< 50,"Cc1nc(CN2CCN(C)CC2)ccc1-n1cc(-c2nc(NC3CCN(S(=O)(=O)c4cn(C)cn4)CC3)ncc2C(F)(F)F)cn1 [Example 252, N-(1-((1-Methyl-1H-imidazol-4-yl)sulfonyl)piperidin-4-yl)-4-(1-(2-methyl-6-((4-methylpiperazin-1-yl)methyl)pyridin-3-yl)-1H-pyrazol-4-yl)-5-(trifluoromethyl)pyrimidin-2-amine]"
2,< 50,"CCN1CCN(Cc2ccc(-n3cc(-c4nc(NC5CCN(S(=O)(=O)c6cn(C)cn6)CC5)ncc4C(F)(F)F)cn3)c(C)n2)CC1 [Example 253, 4-(1-(6-((4-Ethylpiperazin-1-yl)methyl)-2-methylpyridin-3-yl)-1H-pyrazol-4-yl)-N-(1-((1-methyl-1H-imidazol-4-yl)sulfonyl)piperidin-4-yl)-5-(trifluoromethyl)pyrimidin-2-amine]"
3,< 50,"Cc1nc(CN2CCN(C(C)C)CC2)ccc1-n1cc(-c2nc(NC3CCN(S(=O)(=O)c4cn(C)cn4)CC3)ncc2C(F)(F)F)cn1 [Example 254, 4-(1-(6-((4-Isopropylpiperazin-1-yl)methyl)-2-methylpyridin-3-yl)-1H-pyrazol-4-yl)-N-(1-((1-methyl-1H-imidazol-4-yl)sulfonyl)piperidin-4-yl)-5-(trifluoromethyl)pyrimidin-2-amine]"
4,< 50,"Cc1nc(CN2CCN(C)CC2)ccc1-n1cc(-c2nc(N[C@H]3CCN(S(=O)(=O)c4cn(C)cn4)C[C@H]3C)ncc2C(F)(F)F)cn1 [Example 255, N-((3R,4S)-3-methyl-1-((1-methyl-1H-imidazol-4-yl)sulfonyl)piperidin-4-yl)-4-(1-(2-methyl-6-((4-methylpiperazin-1-yl)methyl)pyridin-3-yl)-1H-pyrazol-4-yl)-5-(trifluoromethyl)pyrimidin-2-amine]"
5,< 50,"CCN1CCN(Cc2ccc(-n3cc(-c4nc(N[C@H]5CCN(S(=O)(=O)c6cn(C)cn6)C[C@H]5C)ncc4C(F)(F)F)cn3)c(C)n2)CC1 [Example 256, 4-(1-(6-((4-Ethylpiperazin-1-yl)methyl)-2-methylpyridin-3-yl)-1H-pyrazol-4-yl)-N-((3R,4S)-3-methyl-1-((1-methyl-1H-imidazol-4-yl)sulfonyl)piperidin-4-yl)-5-(trifluoromethyl)pyrimidin-2-amine]"
6,< 50,"Cc1nc(CN2CCN(C(C)C)CC2)ccc1-n1cc(-c2nc(N[C@H]3CCN(S(=O)(=O)c4cn(C)cn4)C[C@H]3C)ncc2C(F)(F)F)cn1 [Example 257, 4-(1-(6-((4-Isopropylpiperazin-1-yl)methyl)-2-methylpyridin-3-yl)-1H-pyrazol-4-yl)-N-((3R,4S)-3-methyl-1-((1-methyl-1H-imidazol-4-yl)sulfonyl)piperidin-4-yl)-5-(trifluoromethyl)pyrimidin-2-amine]"
7,< 50,"CN1CCN(Cc2ccc(-n3cc(-c4nc(NC5CCN(S(=O)(=O)c6ccccn6)CC5)ncc4C#N)cn3)c(Cl)c2)CC1 [Example 258, 4-(1-(2-Chloro-4-((4-methylpiperazin-1-yl)methyl)phenyl)-1H-pyrazol-4-yl)-2-((1-(pyridin-2-ylsulfonyl)piperidin-4-yl)amino)pyrimidine-5-carbonitrile]"
8,< 50,"CN1CCN(Cc2ccc(-n3cc(-c4nc(NC5CCN(S(=O)(=O)C6CC6)CC5)ncc4C#N)cn3)c(Cl)c2)CC1 [Example 259, 4-(1-(2-Chloro-4-((4-methylpiperazin-1-yl)methyl)phenyl)-1H-pyrazol-4-yl)-2-((1-(cyclopropylsulfonyl)piperidin-4-yl)amino)pyrimidine-5-carbonitrile]"
9,< 50,"CN1CCN(Cc2ccc(-n3cc(-c4nc(NC5CCN(S(=O)(=O)c6cn(C)cn6)CC5)ncc4C#N)cn3)c(Cl)c2)CC1 [Example 261, 4-(1-(2-Chloro-4-((4-methylpiperazin-1-yl)methyl)phenyl)-1H-pyrazol-4-yl)-2-((1-((1-methyl-1H-imidazol-4-yl)sulfonyl)piperidin-4-yl)amino)pyrimidine-5-carbonitrile]"
10,< 50,"Cc1nc(CNC(C)(C)C)ccc1-n1cc(-c2nc(NC3CCN(S(C)(=O)=O)CC3)ncc2C#N)cn1 [Example 262, 4-(1-(6-((tert-Butylamino)methyl)-2-methylpyridin-3-yl)-1H-pyrazol-4-yl)-2-((1-(methylsulfonyl)piperidin-4-yl)amino)pyrimidine-5-carbonitrile]"
11,< 50,"Cc1nc(CNC(C)(C)C2CC2)ccc1-n1cc(-c2nc(NC3CCN(S(C)(=O)=O)CC3)ncc2C#N)cn1 [Example 263, 4-(1-(6-(((2-Cyclopropylpropan-2-yl)amino)methyl)-2-methylpyridin-3-yl)-1H-pyrazol-4-yl)-2-((1-(methylsulfonyl)piperidin-4-yl)amino)pyrimidine-5-carbonitrile]"
12,< 50,"Cc1nc(CNC(C)(C)C(N)=O)ccc1-n1cc(-c2nc(NC3CCN(S(C)(=O)=O)CC3)ncc2C#N)cn1 [Example 264, 2-(((5-(4-(5-Cyano-2-((1-(methylsulfonyl)piperidin-4-yl)amino)pyrimidin-4-yl)-1H-pyrazol-1-yl)-6-methylpyridin-2-yl)methyl)amino)-2-methylpropanamide]"
13,< 50,Cc1nc(CN[C@]2(C)C[C@H](O)C2)ccc1-n1cc(-c2nc(NC3CCN(S(C)(=O)=O)CC3)ncc2C#N)cn1 [Example 265]
14,< 50,"CNCc1ccc(-n2cc(-c3nc(NC4CCN(S(=O)(=O)c5cn(C)cn5)CC4)ncc3Cl)cn2)c(C)n1 [Example 266, 5-Chloro-N-(1-((1-methyl-1H-imidazol-4-yl)sulfonyl)piperidin-4-yl)-4-(1-(2-methyl-6-((methylamino)methyl)pyridin-3-yl)-1H-pyrazol-4-yl)pyrimidin-2-amine]"
15,< 50,"CCNCc1ccc(-n2cc(-c3nc(NC4CCN(S(=O)(=O)c5cn(C)cn5)CC4)ncc3Cl)cn2)c(C)n1 [Example 267, 5-Chloro-4-(1-(6-((ethylamino)methyl)-2-methylpyridin-3-yl)-1H-pyrazol-4-yl)-N-(1-((1-methyl-1H-imidazol-4-yl)sulfonyl)piperidin-4-yl)pyrimidin-2-amine]"
16,< 50,"CNCc1ccc(-n2cc(-c3nc(NC4CCN(S(=O)(=O)c5cn(C)cn5)CC4)ncc3C(F)(F)F)cn2)c(C)n1 [Example 268, N-(1-((1-Methyl-1H-imidazol-4-yl)sulfonyl)piperidin-4-yl)-4-(1-(2-methyl-6-((methylamino)methyl)pyridin-3-yl)-1H-pyrazol-4-yl)-5-(trifluoromethyl)pyrimidin-2-amine]"
17,< 50,"CCNCc1ccc(-n2cc(-c3nc(NC4CCN(S(=O)(=O)c5cn(C)cn5)CC4)ncc3C(F)(F)F)cn2)c(C)n1 [Example 269, 4-(1-(6-((Ethylamino)methyl)-2-methylpyridin-3-yl)-1H-pyrazol-4-yl)-N-(1-((1-methyl-1H-imidazol-4-yl)sulfonyl)piperidin-4-yl)-5-(trifluoromethyl)pyrimidin-2-amine]"
18,< 50,"CNCc1ccc(-n2cc(-c3nc(N[C@H]4CCN(S(=O)(=O)c5cn(C)cn5)C[C@H]4C)ncc3C(F)(F)F)cn2)c(C)n1 [Example 270, N-((3R,4S)-3-Methyl-1-((1-methyl-1H-imidazol-4-yl)sulfonyl)piperidin-4-yl)-4-(1-(2-methyl-6-((methylamino)methyl)pyridin-3-yl)-1H-pyrazol-4-yl)-5-(trifluoromethyl)pyrimidin-2-amine]"
19,< 50,"CCNCc1ccc(-n2cc(-c3nc(N[C@H]4CCN(S(=O)(=O)c5cn(C)cn5)C[C@H]4C)ncc3C(F)(F)F)cn2)c(C)n1 [Example 271, 4-(1-(6-((Ethylamino)methyl)-2-methylpyridin-3-yl)-1H-pyrazol-4-yl)-N-((3R,4S)-3-methyl-1-((1-methyl-1H-imidazol-4-yl)sulfonyl)piperidin-4-yl)-5-(trifluoromethyl)pyrimidin-2-amine]"
20,< 50,"CNCc1ccc(-n2cc(-c3nc(N[C@H]4CCN(S(=O)(=O)c5cn(C)cn5)C[C@H]4C)ncc3C#N)cn2)c(C)n1 [Example 272, 2-(((3R,4S)-3-Methyl-1-((1-methyl-1H-imidazol-4-yl)sulfonyl)piperidin-4-yl)amino)-4-(1-(2-methyl-6-((methylamino)methyl)pyridin-3-yl)-1H-pyrazol-4-yl)pyrimidine-5-carbonitrile]"
21,< 50,"CCNCc1ccc(-n2cc(-c3nc(N[C@H]4CCN(S(=O)(=O)c5cn(C)cn5)C[C@H]4C)ncc3C#N)cn2)c(C)n1 [Example 273, 4-(1-(6-((Ethylamino)methyl)-2-methylpyridin-3-yl)-1H-pyrazol-4-yl)-2-(((3R,4S)-3-methyl-1-((1-methyl-1H-imidazol-4-yl)sulfonyl)piperidin-4-yl)amino)pyrimidine-5-carbonitrile]"
22,< 50,"Cc1nc(CNC(C)C)ccc1-n1cc(-c2nc(NC3CCN(S(=O)(=O)c4cn(C)cn4)CC3)ncc2Cl)cn1 [Example 274, 5-Chloro-4-(1-(6-((isopropylamino)methyl)-2-methylpyridin-3-yl)-1H-pyrazol-4-yl)-N-(1-((1-methyl-1H-imidazol-4-yl)sulfonyl)piperidin-4-yl)pyrimidin-2-amine]"
23,< 50,"Cc1nc(CNC(C)C)ccc1-n1cc(-c2nc(NC3CCN(S(=O)(=O)c4cn(C)cn4)CC3)ncc2C(F)(F)F)cn1 [Example 275, 4-(1-(6-((Isopropylamino)methyl)-2-methylpyridin-3-yl)-1H-pyrazol-4-yl)-N-(1-((1-methyl-1H-imidazol-4-yl)sulfonyl)piperidin-4-yl)-5-(trifluoromethyl)pyrimidin-2-amine]"
24,< 50,"Cc1nc(CNC(C)C)ccc1-n1cc(-c2nc(N[C@H]3CCN(S(=O)(=O)c4cn(C)cn4)C[C@H]3C)ncc2C(F)(F)F)cn1 [Example 276, 4-(1-(6-((Isopropylamino)methyl)-2-methylpyridin-3-yl)-1H-pyrazol-4-yl)-N-((3R,4S)-3-methyl-1-((1-methyl-1H-imidazol-4-yl)sulfonyl)piperidin-4-yl)-5-(trifluoromethyl)pyrimidin-2-amine]"
